Tests used:
PDE1 = test: Selectivity: inhibition of PDE1, radioenzymatic phosphodiesterase assay; format: biochemical, bovine; settings: 10 μM test compound; vascular smooth muscle
Method: (§1) A 3 g segment of bovine aortic media cut into pieces with scissors was homogenized with an ultra-turrax then a potter glass/glass homogenizer in 7 volumes by weight of buffer A containing a protease inhibitor cocktail (20 mM Tris-HCl, 0.25 M saccharose, 2 mM magnesium acetate, 1 mM dithiothreitol, 5 mM EGTA, 2000 U/ml aprotinin, 10 mg/l leupeptin and 10 mg/l soya trypsic inhibitor). The homogenizate was centrifuged at 105,000 g for 1 hour. The supernatant was loaded on a DEAE-Sephacel column (15 x 1.6 cm) pre-equilibrated with buffer B (buffer A without the saccharose, EGTA and protease inhibitors). The column was washed until there was no detectable absorption at 280 nm, then eluted with a linear gradient of NaCl (0-0.5 M) in buffer B. 3-ml fractions were collected and enzyme activity was determined under the conditions described hereinbelow to localize the different enzymes PDE1, PDE3, PDE4 and PDE5 which were aliquoted and frozen at −80° C. (Lugnier et al., Biochem. Phamacol., 1986, 35: 1746-1751). PDE2 was prepared from bovine endothelial cells by the same methods (Lugnier and Schini, Biochem. Pharmacol., 1990, 39: 75-84).
(§2) Cyclic nucleotide phosphodiesterase activity was determined by a radioenzymatic method using tritium-labelled cyclic GMP or AMP (1 μM) as substrate (Lugnier et al., 1986). ^3H-labelled adenosine or guanosine monophosphate formed by hydrolysis of the radiolabelled cyclic nucleotide was then converted to ^3H-labelled adenosine or guanosine in a second reaction with […] in excess. The nucleoside formed was separated from the nucleotides by anion exchange chromatography. Nucleoside radioactivity was determined by liquid scintillation counting. […]
(§3) The activity of the compounds was evaluated on other phosphodiesterase isoforms, particularly basal state or calmodulin-activated PDEl from vascular smooth muscle, PDE3, PDE4 and PDE5 from vascular smooth muscle.
(§4) The results obtained are presented in Tables 1 and 2 hereinbelow and are expressed as the percentage inhibition of enzymatic activity produced by […] of the test compound.

PDE3 = biological target: T1, PDE3 (Bos taurus, UniProt A0A3Q1M1E8); test: Selectivity: inhibition of PDE3, radioenzymatic phosphodiesterase assay; format: biochemical, bovine; settings: 10 μM test compound; vascular smooth muscle; read-out: PDE3 percentage inhibition at 10 μM
T1 sequence (A0A3Q1M1E8 1-1126): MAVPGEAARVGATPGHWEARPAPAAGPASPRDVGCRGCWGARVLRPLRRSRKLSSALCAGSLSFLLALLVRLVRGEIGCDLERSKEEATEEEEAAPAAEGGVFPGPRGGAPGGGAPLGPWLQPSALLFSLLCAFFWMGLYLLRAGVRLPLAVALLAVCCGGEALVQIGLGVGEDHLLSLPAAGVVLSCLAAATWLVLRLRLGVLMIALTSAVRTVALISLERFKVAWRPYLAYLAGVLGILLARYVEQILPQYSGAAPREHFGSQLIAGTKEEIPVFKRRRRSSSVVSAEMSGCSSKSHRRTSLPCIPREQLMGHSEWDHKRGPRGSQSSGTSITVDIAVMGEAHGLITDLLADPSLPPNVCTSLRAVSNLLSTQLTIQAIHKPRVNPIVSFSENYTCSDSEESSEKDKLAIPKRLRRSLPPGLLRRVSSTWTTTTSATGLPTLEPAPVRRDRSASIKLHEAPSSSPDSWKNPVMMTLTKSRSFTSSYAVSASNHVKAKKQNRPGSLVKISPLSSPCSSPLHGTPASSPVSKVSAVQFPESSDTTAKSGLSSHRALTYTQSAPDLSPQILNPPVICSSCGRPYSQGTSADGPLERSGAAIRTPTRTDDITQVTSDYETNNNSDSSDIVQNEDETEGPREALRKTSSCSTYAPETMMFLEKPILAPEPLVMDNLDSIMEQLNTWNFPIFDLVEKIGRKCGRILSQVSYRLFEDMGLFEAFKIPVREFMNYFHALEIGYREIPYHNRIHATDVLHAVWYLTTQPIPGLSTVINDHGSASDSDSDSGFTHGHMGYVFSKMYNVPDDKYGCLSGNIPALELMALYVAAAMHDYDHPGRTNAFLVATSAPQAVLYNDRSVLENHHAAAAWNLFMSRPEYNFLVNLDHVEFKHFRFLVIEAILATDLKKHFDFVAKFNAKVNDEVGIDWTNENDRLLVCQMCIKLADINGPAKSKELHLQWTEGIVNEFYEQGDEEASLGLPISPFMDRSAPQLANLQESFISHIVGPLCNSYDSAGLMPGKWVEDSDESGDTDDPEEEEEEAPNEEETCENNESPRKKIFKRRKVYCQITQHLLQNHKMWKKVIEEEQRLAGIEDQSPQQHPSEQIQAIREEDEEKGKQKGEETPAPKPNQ
Method: as §1, §2, §3, §4

PDE4 = test: Selectivity: inhibition of PDE4, radioenzymatic phosphodiesterase assay; format: biochemical, bovine; settings: 10 μM test compound; vascular smooth muscle
Method: as §1
Cyclic nucleotide phosphodiesterase activity was determined by a radioenzymatic method using tritium-labelled cyclic GMP or AMP (1 μM) as substrate (Lugnier et al., 1986). ^3H-labelled adenosine or guanosine monophosphate formed by hydrolysis of the radiolabelled cyclic nucleotide was then converted to ^3H-labelled adenosine or guanosine in a second reaction with […] in excess. The nucleoside formed was separated from the nucleotides by anion exchange chromatography. Nucleoside radioactivity was determined by liquid scintillation counting. Enzymatic incubations were carried out under conditions allowing no more than 15% hydrolysis of the substrate; each point was performed in duplicate.
as §3, §4

mice = test: Elevated plus maze test; format: in vivo, Balb/c or Swiss mice; settings: oral, 1 hour before the test, all doses tested, recorded over 8 minutes, versus control
Excerpt: This test was validated in the rat by Pellow in 1986 and in the mouse by Lister in 1987. It is based on an aversion to open spaces: the open arms elicit anxiety in the animals while the closed arms represent safety. By recording the frequency of entry into each arm, this test evaluates the anxiolytic effect of a molecule in comparison with a reference compound such as buspirone.
Ten to eleven-week old Balb/c or Swiss mice were used for the test. Mice were randomly divided into a control group (treated with the vehicle) and other groups treated with the test compounds.
The test apparatus was a PVC maze with a plexiglass lid, divided into four equivalent exploration arms (45×10 cm), all interconnected by a small platform (10×10 cm). The apparatus was placed 66 crn above the floor. Two arms were opened and the other two closed with a wall (height: 30 cm).
After administration, the mouse was placed on the platform opposite the closed arm. The number of entries and the time spent in each open arm were recorded over 8 minutes.
The treatment was administered 1 hour before the test. The compounds were given orally at different doses. N=10; *** p<0.005 and **** p<0.001 (versus control; Dunnett test).

Question: Which “PDE1 percentage inhibition at 10 μM” value (PDE1) does the source give for COc1cc2c(cc1OC)N(C)C(=O)CN=C2c1cccc(C(N)=O)c1 [Compound 5a, 3-(7,8-dimethoxy-1-methyl-2-oxo-2,3-dihydro-1H-1,4-benzodiazepin-5-yl)-benzamide] here?
Answer: The value was 13.2%.

Question: What about the inhibition at 10 µM (PDE3) of the same compound?
Answer: The inhibition at 10 µM was 5%.

Question: What about the “PDE4 percentage inhibition at 10 μM” value (PDE4) of the same compound?
Answer: Its value is 16.2%.

Question: And the “percentage of time spent in the open arms” value (mice)?
Answer: Its value is “spent more time in the open arms”.

— patent US20060128695A1, “Cyclic nucleotide phosphodiesterase inhibitors, preparation and uses” (NEURO3D, priority 2002, published 2006)
